Source: patent US20090311217A1, “3-SUBSTITUTED-1H-INDOLE COMPOUNDS, THEIR USE AS MTOR KINASE AND PI3 KINASE INHIBITORS, AND THEIR SYNTHESES” (priority 2008, published 2009)

Tests used:
Format in all cases: biochemical
PI3K-alpha = PI3K-alpha (Homo sapiens, UniProt P42336); test: PI3K-alpha fluorescence polarization assay; details: read-out: PI3Kα Avg. IC50
PI3K-gamma = PI3K-gamma (Homo sapiens, UniProt P48736); test: PI3K-gamma fluorescence polarization assay; details: PI3Kγ Avg. IC50
Method in brief: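 Enzyme 5 ng; substrate diC8-PI(4,5)P2 2.5 μM; ATP 25 μM; 5 mM HEPES pH 7, 2.5 mM MgCl2; DMSO ≤2%; 1 h, 25° C. Quench 10 mM EDTA. Detect with GRP1 PH domain 100 nM + TMR-IP4 probe 5 nM by polarization.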

human TOR = target: T1, human TOR (Homo sapiens, UniProt P42345); test: mTOR enzyme assay (DELFIA, His6-S6K substrate); details: read-out: mTOR Kinase Avg. IC50
T1 construct: FLAG

Chain of PI3K-alpha (P42336 whole entry, species assumed): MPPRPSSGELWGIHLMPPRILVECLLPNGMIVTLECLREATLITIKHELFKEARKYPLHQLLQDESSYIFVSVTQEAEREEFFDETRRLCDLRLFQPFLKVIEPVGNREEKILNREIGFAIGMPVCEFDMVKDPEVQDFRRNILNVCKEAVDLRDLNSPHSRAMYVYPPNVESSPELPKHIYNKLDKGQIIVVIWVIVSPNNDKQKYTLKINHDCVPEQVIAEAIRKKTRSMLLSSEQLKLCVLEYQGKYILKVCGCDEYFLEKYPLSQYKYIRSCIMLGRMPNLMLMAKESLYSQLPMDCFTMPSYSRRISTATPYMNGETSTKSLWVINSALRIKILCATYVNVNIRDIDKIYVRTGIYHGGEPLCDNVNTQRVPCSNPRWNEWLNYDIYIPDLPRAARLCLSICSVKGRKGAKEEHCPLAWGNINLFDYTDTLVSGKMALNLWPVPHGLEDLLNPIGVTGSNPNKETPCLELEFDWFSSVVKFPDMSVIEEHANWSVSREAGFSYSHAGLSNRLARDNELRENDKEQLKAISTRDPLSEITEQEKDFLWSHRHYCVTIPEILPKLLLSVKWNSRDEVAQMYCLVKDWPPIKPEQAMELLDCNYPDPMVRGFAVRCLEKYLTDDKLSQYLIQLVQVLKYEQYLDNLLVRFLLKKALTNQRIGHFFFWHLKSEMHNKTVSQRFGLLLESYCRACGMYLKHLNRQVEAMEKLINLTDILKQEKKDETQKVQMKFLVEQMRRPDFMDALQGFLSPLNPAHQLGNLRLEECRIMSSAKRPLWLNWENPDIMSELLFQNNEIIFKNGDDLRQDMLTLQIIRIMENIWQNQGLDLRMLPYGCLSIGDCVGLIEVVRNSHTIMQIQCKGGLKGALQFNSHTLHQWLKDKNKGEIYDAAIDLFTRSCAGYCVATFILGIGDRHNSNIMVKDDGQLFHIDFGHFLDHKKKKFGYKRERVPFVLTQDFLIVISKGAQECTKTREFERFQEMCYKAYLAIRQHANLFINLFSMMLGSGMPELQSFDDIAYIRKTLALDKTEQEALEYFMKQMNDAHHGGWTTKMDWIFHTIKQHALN
Chain of PI3K-alpha (P27986 whole entry partner, species assumed): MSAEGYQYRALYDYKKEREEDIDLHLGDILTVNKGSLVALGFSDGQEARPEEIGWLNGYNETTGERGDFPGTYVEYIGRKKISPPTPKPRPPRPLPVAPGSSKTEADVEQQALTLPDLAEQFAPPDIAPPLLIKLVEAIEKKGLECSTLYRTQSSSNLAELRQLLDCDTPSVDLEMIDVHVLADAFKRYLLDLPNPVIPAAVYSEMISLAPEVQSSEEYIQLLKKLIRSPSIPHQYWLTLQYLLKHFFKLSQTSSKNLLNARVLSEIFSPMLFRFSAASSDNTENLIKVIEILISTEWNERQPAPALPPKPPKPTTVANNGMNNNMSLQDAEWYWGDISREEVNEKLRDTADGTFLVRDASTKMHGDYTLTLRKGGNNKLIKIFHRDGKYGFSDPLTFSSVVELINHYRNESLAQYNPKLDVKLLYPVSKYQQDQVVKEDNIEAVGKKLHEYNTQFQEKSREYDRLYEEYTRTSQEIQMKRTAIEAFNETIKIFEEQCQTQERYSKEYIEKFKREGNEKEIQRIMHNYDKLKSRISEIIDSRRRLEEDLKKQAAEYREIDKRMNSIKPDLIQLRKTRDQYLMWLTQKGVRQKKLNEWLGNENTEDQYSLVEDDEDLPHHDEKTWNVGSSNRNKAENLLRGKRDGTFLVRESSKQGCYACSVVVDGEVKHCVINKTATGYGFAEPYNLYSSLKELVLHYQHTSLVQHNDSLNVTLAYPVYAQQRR
Chain of PI3K-gamma (P48736 whole entry, species assumed, the tested form may be a part): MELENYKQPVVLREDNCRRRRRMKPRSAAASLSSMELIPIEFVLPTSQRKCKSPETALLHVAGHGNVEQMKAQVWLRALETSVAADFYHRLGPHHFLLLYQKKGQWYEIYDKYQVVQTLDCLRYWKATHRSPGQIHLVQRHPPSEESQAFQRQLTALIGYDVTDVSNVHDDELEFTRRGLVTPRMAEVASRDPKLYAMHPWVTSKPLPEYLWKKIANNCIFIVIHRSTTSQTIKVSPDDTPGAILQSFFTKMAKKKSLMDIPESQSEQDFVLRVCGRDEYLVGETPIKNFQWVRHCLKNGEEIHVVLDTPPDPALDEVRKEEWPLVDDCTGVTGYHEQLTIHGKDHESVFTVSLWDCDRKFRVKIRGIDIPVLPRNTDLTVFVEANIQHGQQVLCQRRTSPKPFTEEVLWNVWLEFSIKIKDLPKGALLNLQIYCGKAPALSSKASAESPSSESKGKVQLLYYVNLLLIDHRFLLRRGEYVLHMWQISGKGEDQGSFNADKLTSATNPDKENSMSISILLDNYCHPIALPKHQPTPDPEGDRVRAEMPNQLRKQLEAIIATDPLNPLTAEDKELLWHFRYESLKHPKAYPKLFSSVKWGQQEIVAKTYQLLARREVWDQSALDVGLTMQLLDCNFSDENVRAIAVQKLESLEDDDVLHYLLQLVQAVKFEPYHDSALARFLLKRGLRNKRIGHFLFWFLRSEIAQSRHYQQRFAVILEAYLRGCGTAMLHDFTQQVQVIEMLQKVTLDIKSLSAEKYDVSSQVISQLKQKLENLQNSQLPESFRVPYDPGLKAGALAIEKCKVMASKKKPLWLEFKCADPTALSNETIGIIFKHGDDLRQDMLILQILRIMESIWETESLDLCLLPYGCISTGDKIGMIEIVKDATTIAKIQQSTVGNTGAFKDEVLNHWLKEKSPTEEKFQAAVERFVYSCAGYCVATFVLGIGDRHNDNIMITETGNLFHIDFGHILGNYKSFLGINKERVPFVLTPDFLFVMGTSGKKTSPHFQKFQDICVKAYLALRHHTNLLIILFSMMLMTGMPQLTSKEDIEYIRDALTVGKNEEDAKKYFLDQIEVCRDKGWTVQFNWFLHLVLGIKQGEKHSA

| SMILES | IC50 (PI3K-alpha) [nM] | IC50 (PI3K-gamma) [nM] | IC50 (human TOR) [nM] |
| --- | --- | --- | --- |
| Cn1cc(C=C2Oc3cc(O)cc(O)c3C2=O)c2c(C#N)cccc21 [Example 188, 3-[(4,6-dihydroxy-3-oxo-1-benzofuran-2(3H)-ylidene)methyl]-1-methyl-1H-indole-4-carbonitrile] | 1800 | > 10000 | 260 |
| Cn1c(-c2cccnc2)c(C=C2Oc3cc(O)cc(O)c3C2=O)c2ccccc21 [Example 189, 4,6-dihydroxy-2-[(1-methyl-2-pyridin-3-yl-1H-indol-3-yl)methylene]-1-benzofuran-3(2H)-one] | 2710 | 11000 | 140 |
| Cn1c(-c2ccncc2)c(C=C2Oc3cc(O)cc(O)c3C2=O)c2ccccc21 [Example 190, 4,6-dihydroxy-2-[(1-methyl-2-pyridin-4-y1-1H-indol-3-yl)methylene]-1-benzofuran-3(2H)-one] | 2120 | 8540 | 120 |
| Cn1c(-c2ccc(O)cc2)c(C=C2Oc3cc(O)cc(O)c3C2=O)c2ccccc21 [Example 193, 4,6-dihydroxy-2-{[2-(4-hydroxyphenyl)-1-methyl-1H-indol-3-yl]methylene}-1-benzofuran-3(2H)-one] | 1120 | 7660 | 85 |
| Cn1c(-c2ccsc2)c(C=C2Oc3cc(O)cc(O)c3C2=O)c2ccccc21 [Example 194, 4,6-dihydroxy-2-{[1-methyl-2-(3-thienyl)-1H-indol-3-yl]methylene}-1-benzofuran-3(2H)-one] | 837 | 3290 | 230 |
| Cn1c(-c2cccc(F)c2)c(C=C2Oc3cc(O)cc(O)c3C2=O)c2ccccc21 [Example 197, 2-{[2-(3-fluorophenyl)-1-methyl-1H-indol-3-yl]methylene}-4,6-dihydroxy-1-benzofuran-3(2H)-one] | 1100 | 9160 | 280 |
| Cn1c(-c2ccc(F)cc2)c(C=C2Oc3cc(O)cc(O)c3C2=O)c2ccccc21 [Example 200, 2-{[2-(4-fluorophenyl)-1-methyl-1H-indol-3-yl]methylene}-4,6-dihydroxy-1-benzofuran-3(2H)-one] | 1090 | 3070 | 220 |
| Cn1c(-c2ccc(Cl)cc2)c(C=C2Oc3cc(O)cc(O)c3C2=O)c2ccccc21 [Example 201, 2-{[2-(4-chlorophenyl)-1-methyl-1H-indol-3-yl]methylene}-4,6-dihydroxy-1-benzofuran-3(2H)-one] | 712 | 5460 | 120 |
| O=C1C(=Cc2c(-c3cccnc3)[nH]c3ccccc23)Oc2cc(O)cc(O)c21 [Example 202, 4,6-dihydroxy-2-[(2-pyridin-3-yl-1H-indol-3-yl)methylene]-1-benzofuran-3(2H)-one] | 1050 | 7000 | 95 |
| O=C1C(=Cc2c(-c3ccncc3)[nH]c3ccccc23)Oc2cc(O)cc(O)c21 [Example 203, 4,6-dihydroxy-2-[(2-pyridin-4-yl-1H-indol-3-yl)methylene]-1-benzofuran-3(2H)-one] | 1410 | 6620 | 150 |
| Cc1noc(C)c1-c1[nH]c2ccccc2c1C=C1Oc2cc(O)cc(O)c2C1=O [Example 204, 2-{[2-(3,5-dimethylisoxazol-4-yl)-1H-indol-3-yl]methylene}-4,6-dihydroxy-1-benzofuran-3(2H)-one] | 1160 | 6430 | 190 |
| O=C1C(=Cc2c(-c3cccc(O)c3)[nH]c3ccccc23)Oc2cc(O)cc(O)c21 [Example 205, 4,6-dihydroxy-2-{[2-(3-hydroxyphenyl)-1H-indol-3-yl]methylene}-1-benzofuran-3(2H)-one] | 479 | 2370 | 110 |
| O=C1C(=Cc2c(-c3ccc(O)cc3)[nH]c3ccccc23)Oc2cc(O)cc(O)c21 [Example 206, 4,6-dihydroxy-2-{[2-(4-hydroxyphenyl)-1H-indol-3-yl]methylene}-1-benzofuran-3(2H)-one] | 573 | 1050 | 65 |
| O=C1C(=Cc2c(-c3cccc(F)c3)[nH]c3ccccc23)Oc2cc(O)cc(O)c21 [Example 210, 2-{[2-(3-fluorophenyl)-1H-indol-3-yl]methylene}-4,6-dihydroxy-1-benzofuran-3(2H)-one] | 674 | 1480 | 190 |
| CCn1c(-c2ccccc2)c(C=C2Oc3cc(O)cc(O)c3C2=O)c2ccccc21 [Example 213, 2-[(1-ethyl-2-phenyl-1H-indol-3-yl)methylene]-4,6-dihydroxy-1-benzofuran-3(2H)-one] | 770 | 2650 | 170 |
| Cc1[nH]c2ccc(Cl)cc2c1C=C1Oc2cc(O)cc(O)c2C1=O [Example 215, 2-[(5-chloro-2-methyl-1H-indol-3-yl)methylene]-4,6-dihydroxy-1-benzofuran-3(2H)-one] | 264 | 2610 | 290 |

| SMILES | IC50 (PI3K-alpha) [nM] | IC50 (PI3K-gamma) [nM] | IC50 (human TOR) [nM] |
| --- | --- | --- | --- |
| Cn1c(-c2ccccn2)c(C=C2Oc3cc(O)cc(O)c3C2=O)c2ccccc21 [Example 223, 4,6-dihydroxy-2-[(1-methyl-2-pyridin-2-yl-1H-indol-3-yl)methylene]-1-benzofuran-3(2H)-one] | 3660 | > 10000 | 60 |
| N#CCCCCn1c(-c2ccccc2)c(C=C2Oc3cc(O)cc(O)c3C2=O)c2ccccc21 [Example 224, 5-{3-[(4,6-dihydroxy-3-oxo-1-benzofuran-2(3H)-ylidene)methyl]-2-phenyl-1H-indol-1-yl}pentanenitrile] | 751 | > 10000 | 480 |
| N#CCCCCCn1c(-c2ccccc2)c(C=C2Oc3cc(O)cc(O)c3C2=O)c2ccccc21 [Example 225, 6-{3-[(4,6-dihydroxy-3-oxo-1-benzofuran-2(3H)-ylidene)methyl]-2-phenyl-1H-indol-1-yl}hexanenitrile] | 968 | > 10000 | 700 |
| N#CCCCn1c(-c2cccnc2)c(C=C2Oc3cc(O)cc(O)c3C2=O)c2ccccc21 [Example 226, 4-{3-[(4,6-dihydroxy-3-oxo-1-benzofuran-2(3H)-ylidene)methyl]-2-pyridin-3-yl-1H-indol-1-yl}butanenitrile] | 1650 | > 10000 | 670 |
| Cn1cc(C=C2Oc3cc(O)cc(O)c3C2=O)c2cc(F)ccc21 [Example 227, 2-[(5-fluoro-1-methyl-1H-indol-3-yl)methylene]-4,6-dihydroxy-1-benzofuran-3(2H)-one] | 757 | 7510 | 3800 |
| Cn1cc(C=C2Oc3cc(O)cc(O)c3C2=O)c2cc([N+](=O)[O-])ccc21 [Example 228, 4,6-dihydroxy-2-[(1-methyl-5-nitro-1H-indol-3-yl)methylene]-1-benzofuran-3(2H)-one] | 3570 | > 10000 | 980 |
| Cn1cc(C=C2Oc3cc(O)cc(O)c3C2=O)c2cccc([N+](=O)[O-])c21 [Example 229, 4,6-dihydroxy-2-[(1-methyl-7-nitro-1H-indol-3-yl)methylene]-1-benzofuran-3(2H)-one] | 735 | > 10000 | 8300 |
| N#CCCCn1cc(C=C2Oc3cc(O)cc(O)c3C2=O)c2c(Br)cccc21 [Example 230, 4-{4-bromo-3-[(4,6-dihydroxy-3-oxo-1-benzofuran-2(3H)-ylidene)methyl]-1H-indol-1-yl}butanenitrile] | 2020 | > 10000 | 3400 |
| CCc1cccc2c(C=C3Oc4cc(O)cc(O)c4C3=O)cn(CCCC#N)c12 [Example 232, 4-{3-[(4,6-dihydroxy-3-oxo-1-benzofuran-2(3H)-ylidene)methyl]-7-ethyl-1H-indol-1-yl}butanenitrile] | 610 | 6000 | > 20000 |
| Cc1c(C=C2Oc3cc(O)cc(O)c3C2=O)c2cc(Cl)ccc2n1CCCC#N [Example 238, 4-{5-chloro-3-[(4,6-dihydroxy-3-oxo-1-benzofuran-2(3H)-ylidene)methyl]-2-methyl-1H-indol-1-yl}butanenitrile] | 288 | 2820 | 360 |
| O=C1C(=Cc2c[nH]c3c(OCc4ccccc4)cccc23)Oc2cc(O)cc(O)c21 [Example 242, 2-{[7-(benzyloxy)-1H-indol-3-yl]methylene}-4,6-dihydroxy-1-benzofuran-3(2H)-one] | 1000 | > 10000 | > 20000 |
| O=C1C(=Cc2c[nH]c3c(O)cccc23)Oc2cc(O)cc(O)c21 [Example 246, 4,6-dihydroxy-2-[(7-hydroxy-1H-indol-3-yl)methylene]-1-benzofuran-3(2H)-one] | 1030 | > 10000 | 17000 |
| Cn1cc(C=C2Oc3cc(O)cc(O)c3C2=O)c2cc(Br)ccc21 [Example 248, 2-[(5-bromo-1-methyl-1H-indol-3-yl)methylene]-4,6-dihydroxy-1-benzofuran-3(2H)-one] | 1040 | > 10000 | > 20000 |
| N#CCCCn1cc(C=C2Oc3cc(O)cc(O)c3C2=O)c2c(O)cccc21 [Example 257, 4-{3-[(4,6-dihydroxy-3-oxo-1-benzofuran-2(3H)-ylidene)methyl]-4-hydroxy-1H-indol-1-yl}butanenitrile] | 180 | 2240 | 12000 |
| O=C1C(=Cc2c[nH]c3cccc(-c4ccccc4)c23)Oc2cc(O)cc(O)c21 [Example 269, 4,6-dihydroxy-2-[(4-phenyl-1H-indol-3-yl)methylene]-1-benzofuran-3(2H)-one] | 1640 | 2210 | 1060 |
